Drawing on patent US10308644B2, “Heterocyclic compounds as immunomodulators” (Incyte Corporation, priority 2016, dated 2019), this text covers IC50 for 20 compounds.

This experiment has as its target PD-1/PD-L1 (Homo sapiens (Human), UniProt Q9NZQ7). In words: PD-1/PD-L1 Homogeneous Time-Resolved Fluorescence (HTRF) Binding Assay. Particulars: recombinant human PD-1 (3 nM) and PD-L1 (10 nM), 25° C., PBS pH 7.4. The essentials:
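Fc-tagged human PD-1 (25-167, 3 nM) and His-tagged PD-L1 (19-238, 10 nM) preincubated with inhibitor 40 min in PBS pH 7.4, 0.05% Tween-20, 0.1% BSA, 1% DMSO, 25 °C. Binding detected by HTRF (Eu anti-IgG/APC anti-His, 665/620 nm) after 60 min; IC50 from percent control activity.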
A general note: Time-resolved FRET reads energy transfer from a long-lived donor to a nearby acceptor.

Each structure is given as a SMILES string. Bounds are passed on as bounds.

PD-1/PD-L1, sequence (Q9NZQ7 19-238): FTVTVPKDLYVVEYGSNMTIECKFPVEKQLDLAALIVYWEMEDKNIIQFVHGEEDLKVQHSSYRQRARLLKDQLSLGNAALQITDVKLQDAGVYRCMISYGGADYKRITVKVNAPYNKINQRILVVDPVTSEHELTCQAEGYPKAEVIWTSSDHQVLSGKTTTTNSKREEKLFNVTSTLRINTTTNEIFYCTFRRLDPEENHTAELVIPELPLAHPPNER

What is called IC50 is the concentration that inhibits the measured activity by half. With `Cc1c(-c2nc3c(o2)CNCC3)cccc1-c1cccc(-c2nc3cc(CN4CC[C@@H](C(=O)O)C4)cc(Cl)c3o2)c1C` [Example 78, (R)-1-((7-chloro-2-(2,2′-dimethyl-3′-(4,5,6,7-tetrahydrooxazolo[5,4-c]pyridin-2-yl)-[1,1′-biphenyl]-3-yl)benzo[d]oxazol-5-yl)methyl)pyrrolidine-3-carboxylic acid], the IC50 is not above 0.01 µM.

Regarding `CCN(C)CC(=O)N1Cc2nc(-c3cccc(-c4cccc(-c5nc6cc(CN7CC8(C(=O)O)CC7C8)cc(C#N)c6o5)c4C)c3C)sc2C1` [Example 220, 2-((7-cyano-2-(3′-(5-(2-(ethyl(methyl)amino)acetyl)-5,6-dihydro-4H-pyrrolo[3,4-d]thiazol-2-yl)-2,2′-dimethylbiphenyl-3-yl)benzo[d]oxazol-5-yl)methyl)-2-azabicyclo[2.1.1]hexane-4-carboxylic acid], the 50% inhibitory concentration (IC50) was not above 0.01 µM.

On to `Cc1c(Nc2nccc3cc(CN4CC[C@@H](O)C4)cnc23)cccc1-c1cccc(-c2nc3cc(CN4CC5CC4CC5C(=O)O)cc(C#N)c3o2)c1C` (stereo partly drawn) [Example 176, 2-((7-cyano-2-(3′-(3-(((R)-3-hydroxypyrrolidin-1-yl)methyl)-1,7-naphthyridin-8-ylamino)-2,2′-dimethylbiphenyl-3-yl)benzo[d]oxazol-5-yl)methyl)-2-aza bicyclo[2.2.1]heptane-5-carboxylic acid], for which the IC50 was not above 0.01 µM.

Take `Cc1c(Nc2nccc3cc(CN4CC[C@@H](O)C4)cnc23)cccc1-c1cccc(-c2nc3cc(CN[C@H]4C[C@@H](C(=O)O)C4)cc(C#N)c3o2)c1C` [Example 180, cis-3-((7-cyano-2-(3′-(3-(((R)-3-hydroxypyrrolidin-1-yl)methyl)-1,7-naphthyridin-8-ylamino)-2,2′-dimethylbiphenyl-3-yl)benzo [d]oxazol-5-yl)methylamino)cyclobutane carboxylic acid]: the 50% inhibitory concentration (IC50) was not above 0.01 µM.

Take `Cc1c(-c2nc3cc(CN4CCC(C(=O)O)CC4)cc(C#N)c3o2)cccc1-c1cccc(NC(=O)c2nc3c(n2C)CCN(C[C@@H](C)O)C3)c1Cl` [Example 155, (R)-1-((2-(2′-chloro-3′-(5-(2-hydroxypropyl)-1-methyl-4,5,6,7-tetrahydro-1H-imidazo[4,5-c]pyridine-2-carboxamido)-2-methylbiphenyl-3-yl)-7-cyanobenzo[d]oxazol-5-yl)methyl)piperidine-4-carboxylic acid]: the 50% inhibitory concentration (IC50) was not above 0.01 µM.

Regarding `Cc1c(-c2nc3c(o2)CN(C(=O)CN2CC(O)C2)C3)cccc1-c1cccc(-c2nc3cc(CN4CC[C@@H](C(=O)O)C4)cc(C#N)c3o2)c1C` [Example 127, (R)-1-((7-cyano-2-(3′-(5-(2-(3-hydroxyazetidin-1-yl)acetyl)-5,6-dihydro-4H-pyrrolo[3,4-d]oxazol-2-yl)-2,2′-dimethyl-[1,1′-biphenyl]-3-yl)benzo[d]oxazol-5-yl)methyl)pyrrolidine-3-carboxylic acid], the IC50 was not above 0.01 µM.

For the compound `Cc1c(Nc2nccc3cc(CN4CC[C@@H](O)C4)cnc23)cccc1-c1cccc(-c2nc3cc(CN4CC[C@@H](CC(=O)O)C4)cc(C#N)c3o2)c1C` [Example 174, 2-((S)-1-((7-cyano-2-(3′-(3-(((R)-3-hydroxypyrrolidin-1-yl)methyl)-1,7-naphthyridin-8-ylamino)-2,2′-dimethylbiphenyl-3-yl)benzo[d]oxazol-5-yl)methyl)pyrrolidin-3-yl)acetic acid], the IC50 was not above 0.01 µM.

`CCN(C)CC(=O)N1Cc2nc(-c3cccc(-c4cccc(-c5nc6cc(CN7CC[C@@](C)(C(=O)O)C7)cc(C#N)c6o5)c4C)c3C)oc2C1` [Example 243, (R)-1-((7-cyano-2-(3′-(5-(N-ethyl-N-methylglycyl)-5,6-dihydro-4H-pyrrolo[3,4-d]oxazol-2-yl)-2,2′-dimethyl-[1,1′-biphenyl]-3-yl)benzo[d]oxazol-5-yl)methyl)-3-methylpyrrolidine-3-carboxylic acid]: the half-inhibitory concentration (IC50) was not above 0.01 µM.

With `Cc1c(Nc2nccc3cc(CN4CC[C@@H](O)C4)cnc23)cccc1-c1cccc(-c2nc3cc(CN[C@H]4CC[C@H](C(=O)O)C4)cc(C#N)c3o2)c1C` [Example 182, (1S,3S)-3-((7-cyano-2-(3′-(3-(((R)-3-hydroxypyrrolidin-1-yl)methyl)-1,7-naphthyridin-8-ylamino)-2,2′-dimethylbiphenyl-3-yl)benzo [d]oxazol-5-yl)methylamino)cyclopentane carboxylic acid], the IC50 was not above 0.01 µM.

`Cc1c(-c2nc3cc(CN4CC[C@@](C)(C(=O)O)C4)cc(C#N)c3o2)cccc1-c1cccc(-c2nc3c(s2)CN(C(=O)CN(C)[C@@H](C)CO)C3)c1C` [Example 226, (R)-1-((7-cyano-2-(3′-(5-(2-(((S)-1-hydroxypropan-2-yl)(methyl)amino)acetyl)-5,6-dihydro-4H-pyrrolo[3,4-d]thiazol-2-yl)-2,2′-dimethylbiphenyl-3-yl)benzo[d]oxazol-5-yl)methyl)-3-methylpyrrolidine-3-carboxylic acid]: the IC50 was not above 0.01 µM.

On to `Cc1c(Nc2nccc3cc(C4CCCN4)cnc23)cccc1-c1cccc(-c2nc3cc(CN4CC[C@@H](C(=O)O)C4)cc(C#N)c3o2)c1C` (single isomer, unassigned) [Example 98], for which the IC50 is not above 0.01 µM.

As to `Cc1c(Nc2ncnc3cc(CNC[C@H](C)O)cnc23)cccc1-c1cccc(-c2nc3cc(CN4CC[C@@](C)(C(=O)O)C4)cc(C#N)c3o2)c1C` [Example 208, (R)-1-((7-cyano-2-(3′-(7-(((S)-2-hydroxypropylamino)methyl)pyrido[3,2-d]pyrimidin-4-ylamino)-2,2′-dimethylbiphenyl-3-yl)benzo[d]oxazol-5-yl)methyl)-3-methylpyrrolidine-3-carboxylic acid], the concentration for half-maximal inhibition (IC50) was not above 0.01 µM.

In the case of `Cc1c(-c2nc3cc(CN4CCCC[C@H]4C(=O)O)cc(Cl)c3o2)cccc1-c1cccc(NC(=O)c2ccc(CN3CC[C@H](O)C3)cn2)c1Cl` [Example 2, (S)-1-((7-chloro-2-(2′-chloro-3′-(5-(((S)-3-hydroxypyrrolidin-1-yl)methyl)picolinamido)-2-methyl-[1,1′-biphenyl]-3-yl)benzo[d]oxazol-5-yl)methyl)piperidine-2-carboxylic acid], the half-maximal inhibitory concentration (IC50) was not above 0.01 µM.

Take `Cc1c(Nc2nccc3cc(CN4CCC(C(=O)O)CC4)cnc23)cccc1-c1cccc(-c2nc3cc(CN4CC[C@@H](O)C4)cc(C#N)c3o2)c1C` [Example 214, (R)-1-((8-(3′-(7-cyano-5-((3-hydroxypyrrolidin-1-yl)methyl)benzo[d]oxazol-2-yl)-2,2′-dimethylbiphenyl-3-ylamino)-1,7-naphthyridin-3-yl)methyl)piperidine-4-carboxylic acid]: the half-maximal inhibitory concentration (IC50) was not above 0.01 µM.

As to `Cc1c(-c2nc3cc(CN4CC5CC4CC5O)cc(C#N)c3o2)cccc1-c1cccc(NC(=O)c2nc3c(n2C)CCN(CC2CCC(C(=O)O)CC2)C3)c1Cl` (stereo not drawn) [Example 270, trans-4-((2-(2-chloro-3′-(7-cyano-5-((5-hydroxy-2-azabicyclo[2.2.1]heptan-2-yl)methyl)benzo[d]oxazol-2-yl)-2′-methylbiphenyl-3-ylcarbamoyl)-1-methyl-6,7-dihydro-1H-imidazo[4,5-c]pyridin-5(4H)-yl)methyl)cyclohexanecarboxylic acid], the concentration for half-maximal inhibition (IC50) is not above 0.01 µM.

`Cc1c(-c2nc3cc(CN4CCC(C(=O)O)CC4)cc(C#N)c3o2)cccc1-c1cccc(-c2nc3c(s2)CN(C(=O)CN(C)C)C3)c1C` [Example 236, 1-((7-cyano-2-(3′-(5-(2-(dimethylamino)acetyl)-5,6-dihydro-4H-pyrrolo[3,4-d]thiazol-2-yl)-2,2′-dimethylbiphenyl-3-yl)benzo[d]oxazol-5-yl)methyl)piperidine-4-carboxylic acid]: the concentration for half-maximal inhibition (IC50) was not above 0.01 µM.

Consider `Cc1c(Nc2nccc3cc(CN4CC[C@@H](O)C4)cnc23)cccc1-c1cccc(-c2nc3cc(CN4CC[C@@H](C(=O)O)C4)cc(C#N)c3o2)c1C` [Example 24, (R)-1-((7-cyano-2-(3′-(3-(((R)-3-hydroxypyrrolidin-1-yl)methyl)-1,7-naphthyridin-8-ylamino)-2,2′-dimethylbiphenyl-3-yl)benzo[d]oxazol-5-yl)methyl)pyrrolidine-3-carboxylic acid], for which the concentration for half-maximal inhibition (IC50) was not above 0.01 µM.

As for `Cc1c(-c2nc3cc(CN4CC5(CC(C(=O)O)C5)C4)cc(C#N)c3o2)cccc1-c1cccc(-c2nc3c(s2)CN(C(=O)CN(C)[C@H](C)CO)C3)c1C` [Example 231, 2-((7-cyano-2-(3′-(5-(2-(((R)-1-hydroxypropan-2-yl)(methyl)amino)acetyl)-5,6-dihydro-4H-pyrrolo[3,4-d]thiazol-2-yl)-2,2′-dimethylbiphenyl-3-yl)benzo[d]oxazol-5-yl)methyl)-2-azaspiro[3.3]heptane-6-carboxylic acid], the IC50 is not above 0.01 µM.

Consider `Cc1c(-c2nc3c(o2)CN(C(=O)CN2CC[C@H](C(=O)O)C2)C3)cccc1-c1cccc(-c2nc3cc(CN4CC[C@@H](O)C4)cc(C#N)c3o2)c1C` [Example 131, (S)-1-(2-(2-(3′-(7-cyano-5-(((R)-3-hydroxypyrrolidin-1-yl)methyl)benzo[d]oxazol-2-yl)-2,2′-dimethyl-[1,1′-biphenyl]-3-yl)-4,6-dihydro-5H-pyrrolo[3,4-d]oxazol-5-yl)-2-oxoethyl)pyrrolidine-3-carboxylic acid], for which the half-inhibitory concentration (IC50) is not above 0.01 µM.

As for `Cc1c(Nc2nccc3cc(CN(C)CCO)cnc23)cccc1-c1cccc(-c2nc3cc(CN4CC[C@@](C)(C(=O)O)C4)cc(C#N)c3o2)c1C` [Example 190, (R)-1-((7-cyano-2-(3′-(3-(((2-hydroxyethyl)(methyl)amino)methyl)-1,7-naphthyridin-8-ylamino)-2,2′-dimethylbiphenyl-3-yl)benzo[d]oxazol-5-yl)methyl)-3-methylpyrrolidine-3-carboxylic acid], the IC50 is not above 0.01 µM.
